# Legend:
# [1] = tested on: Dhcr7-deficient Neuro2a neuroblastoma cells; assay: Oxysterol levels in Dhcr7-deficient Neuro2a neuroblastoma cells treated with fatty acid; type: cell-based; settings: for levels of oxysterols associated with free radical induced oxidation: 20 micromolar, Dhcr7 expression depleted by RNA interference, 7-DHC accumulates
# Experimental: Dhcr7-deficient Neuro2a neuroblastoma cells were treated with D2-linoleic acid, and non-deuterated linoleic acid ("Lin") was used in a control experiment. The level of Dhcr7 gene expression was depleted by RNA interference, leading to accumulation of 7-DHC in the cells. 7-DHC is 1-2 orders of magnitude more oxidizeable than linoleic acid, and so can easily initiate lipid peroxidation (See Yin et al., "Free Radical Lipid Peroxidation: Mechanisms and Analysis," Chem Rev. (2011), 111(10), 5944-5972).
# [2] = tested on: Q-less (coq2, coq3, and coq5) yeast mutants; settings: cited from earlier work; for sensitivity of Q-less yeast to treatment: compared with the wild-type parental strain
# [3] = tested on: wild-type (the parental genetic background is strain W303-1B) cells; settings: following a four hour treatment; 240 min; cited from earlier work
SMILES,levels of oxysterols associated with free radical induced oxidation [1],sensitivity of Q-less yeast to treatment [2],other results
"[2H]C([2H])(/C=C\CCCCC)/C=C\CCCCCCCC(=O)O [D2-Lin, 11,11-Dideutero-cis,cis-9,12-Octadecadienoic acid]",low levels,–,"oxidative stress ([1]; 20 micromolar (same concentration as Lin), judged by oxysterol levels): did not induce oxidative stress"
"CCCCC/C=C\C/C=C\CCCCCCCC(=O)O [Lin, cis, cis-9,12-Octadecadienoic acid]",substantially increased,–,–
CCCCC/C=C\C/C=C\C/C=C\C/C=C\CCCC(=O)O [arachidonic acid],–,hypersensitive,–
"CC/C=C\C/C=C\C/C=C\CCCCCCCC(=O)O [linolenic acid, cis,cis,cis-9,12,15-Octadecatrienoic acid]",–,–,"viable Q-less yeast mutants ([2]; following a four hour treatment, 240 min): Less than 1%; viable wild-type cells [3]: 70%"
CCCCCCCC/C=C\CCCCCCCC(=O)O [oleic acid],–,behave the same as the wild-type parental strain,–
